The subject of data set [1] is rat stomach strip (fundus), contraction caused by PGE1. Briefly: rat stomach assay: PGE1 antagonism, inhibition of PGE1-induced contraction of rat stomach fundus muscle strips. In kind it is cell-based. The following applies: Tyrode solution pH 7.1, 37°, PGE1 at concentration causing about 25% of maximum response; for IC50: Rattus norvegicus, pH 7.1, rat stomach fundus strip, read-out: PGE1 Antagonist IC50. The method, then: J. Pharmacol. 12, 344 (1957)]. Male rats are decapitated and a strip is cut from the fundus of the stomach along the greater curvature. The strip (3 to 5 mm wide and 3 to 4 cm long) is suspended in Tyrode solution at pH 7.1 and 37° and gassed continuously with oxygen. Responses of the muscle are monitored isometrically by means of a strain gauge transducer. The above table lists for several compounds of this invention the concentration in μg/ml required to inhibit by 50% the contraction of muscle strips caused by a concentration of PG1 that normally causes about 25% of maximum responses ([…]). Some of the carboxamides were also run against higher concentration of PGE1 and gave greater IC50 values.

Data set [2] concerns ethanol-induced gastric ulcer. Briefly: ethanol-induced gastric ulcer test in rats (gastric cytoprotection). In kind it is in vivo, rat. Conditions: for protection against ulcers: 2.0 mg/kg. As to the method:
One of these compounds is the tert-butylcarboxamide 7 of Example 3. In a test designed to detect gastric cytoprotectin [Robert, U.S. Pat. No. 4,097,603], compound 7 inhibited ethanol-induced gastric ulcer to the extent of about 50 % when administered orally to rats at 2 mg/kg. Under similar conditions 0.5 mg/kg of PGE1 inhibited ulcer formation to the extent of 80%. […] At 2.0 mg/kg compound 14 of Example 7 gave about 18% protection and compound 16 of Example 8 gave about 27% protection against ulcers.

A short description of data set [3]: side effects after oral administration to rats. It counts as in vivo, rat.
Data set [4] is described as follows: pKa measured in 1:1 ethanol/water. Conditions: p-toluenesulfonate salt. It counts as physicochemical. As to the method: This iodamide was treated with pyrazolidinone 6 by a procedure analogous to that used for the synthesis of 10, Example 4b. The crude product 15, was obtained as an oil in 94% yield. A solution of 6.84 g of 15 in 3 ml of dry acetonitrile was added to a solution of 3.39 g of p-toluenesulfonic acid in 26 ml of dry acetonitrile, giving 5.12 g (66%) of salt 16, mp 123°-126°. Recrystallization from acetonitrile gave analytically pure salt 16, mp 129°-130.5°; Anal. calcd. for C28 H49 N3 SO6 : C, 60.51; H, 8.89; N, 7.56; found C, 60.50; H, 8.75; N, 7.89.

Setting [5] is: rats, oral, doses as high as 300 mg/kg.

Structures are written as SMILES. Values after ≈ are worked out from the molar mass of the structure shown.

Regarding `CCCCCC(O)CCN1CCC(=O)N1CCCCCCC(=O)NC(C)(C)C` (stereo not drawn) [Compound 1, N-(tert-butyl)-7[3-oxo-1(3-hydroxy-n-octyl)pyrazolidin-2-yl]heptanamide], the IC50 – broadly, the midpoint of a concentration-inhibition curve – in data set [1] worked out at 60 µg/mL (≈ 151 µM).

As to `CCCCCC(O)CCN1CCC(=O)N1CCCCCCC(=O)NC(C)(C)CC` (stereo not drawn) [Compound 5, N(tert-Amyl)7[3-oxo-1(3-hydroxy-n-octyl)pyrazolidin-2-yl]heptanamide], the IC50 in data set [1] was determined as 25 µg/mL (≈ 60.7 µM).

In the case of `CCCCCC(O)CCN1C(=O)CCN1CCCCCCC(=O)NC(C)(C)C` (stereo not drawn) [Compound 7, N(tert-Butyl)7[3-oxo-2-(3-hydroxy-n-octyl)pyrazolidin-1-yl]heptanamide], the half-maximal inhibitory concentration (IC50) in data set [1] is 33 µg/mL (≈ 83 µM). Moreover, the “inhibition of ethanol-induced gastric ulcer” value in data set [2] (oral, 2 mg/kg) was “about 50%”. The “overt prostaglandin-like side effects” value in data set [3] (rat, in vivo, po) is “no overt prostaglandin-like side effects”. In data set [3] (setting [5]), the diarrhea entry was “no mortality or diarrhea” and the mortality result is reported as “no mortality”.

For `CCCCCC(O)CCN1C(=O)CCN1CCCCCCC(=O)NC(C)(C)C` (stereo not drawn) [Compound 9, N(tert-Butyl)7[3-oxo-2-(3-hydroxy-n-octyl)pyrazolidin-1-yl]heptanamide], the “PGE1 Antagonist IC50” value in data set [1] (rat stomach fundus strip) was 60 µg/mL.

As for `CCCCCC(O)CCN1C(=O)CCN1CCCCCCC(=O)NCC(C)(C)C` (stereo not drawn) [Compound 10, N(2,2-Dimethylpropyl)7[3-oxo-2(3-hydroxy-n-octyl)-pyrazolidin-1-yl]heptanamide], the IC50 in data set [1] fell in the range of 3 to 5 µg/mL (≈ 7.29 to 12.1 µM).

Turning to `CCCCCC(O)CCN1C(=O)CCN1CCCCCCC(=O)NC(C)(C)CC` (stereo not drawn) [Compound 12, N(1,1-Dimethylpropyl)7-[3-oxo-2(3-hydroxy-n-octyl)pyrazolidin-1-yl]heptanamide], the IC50 in data set [1] is 5 µg/mL (≈ 12.1 µM).

Turning to `CCCCCC(O)CCN1C(=O)CCN1CCCCCCC(=O)N(C(C)C)C(C)C` (stereo not drawn) [Compound 13, N,N(Diisopropyl)7-[3-oxo-2(3-hydroxy-n-octyl)-pyrazolidin-1-yl]heptanamide], in data set [1], the IC50 amounted to 20 µg/mL (≈ 47 µM).

Regarding `CCCCCC(O)CCN1C(=O)CCN1CCCCCCC(=O)NC(C)(C)CC(C)(C)C` (stereo not drawn) [Compound 14, N(1,1,3,3,-Tetramethyl-n-butyl)7[3-oxo-2(3-hydroxy-n-octyl)pyrazolidin-1-yl]heptanamide], the IC50 in data set [1] stood at 2 µg/mL (≈ 4.41 µM). Further, in data set [2], the protection against ulcers result is recorded as “about 18%”.

`CCCCCC(O)CCN1C(=O)CCN1CCCCCCC(=O)NC(C)C` (stereo not drawn) [Compound 16, N(iso-Propyl)7[3-oxo-2(3-hydroxy-n-octyl)pyrazolidin-1-yl]heptanamide]: the concentration for half-maximal inhibition (IC50) in data set [1] is 75 µg/mL (≈ 196 µM). In addition, the protection against ulcers result in data set [2] is “about 27%”. In addition, in data set [4], the pKa (as a rule, the negative logarithm of the acid dissociation constant) is 3.25.

As to `CCCCCC(O)CCN1C(=O)CCN1CCCCCCC(=O)NC` (stereo not drawn) [Compound 17, N-methyl-7[3-oxo-2(hydroxy-n-octyl)pyrazolidin-1-yl]heptanamide], in data set [1], the IC50 worked out at 175 µg/mL (≈ 492 µM).

Take `CCCCC[C@H](O)/C=C/[C@H]1[C@H](O)CC(=O)[C@@H]1CCCCCCC(=O)O` [PGE1, reference compound]: the “inhibition of ulcer formation” value in data set [2] (similar conditions, 0.5 mg/kg) was found to be 80%.

Values taken from patent US4211876A, “3-Pyrazolidinone carboxamides” (E. I. Du Pont de Nemours and Company, priority 1979, dated 1980).
